How the values were obtained:
[1] = biological target: T1, hOATP1B3 (Homo sapiens, UniProt Q9NPD5); assay: cell-based
T1 construct: gene SLCO1B3
T1 sequence (Q9NPD5 1-702): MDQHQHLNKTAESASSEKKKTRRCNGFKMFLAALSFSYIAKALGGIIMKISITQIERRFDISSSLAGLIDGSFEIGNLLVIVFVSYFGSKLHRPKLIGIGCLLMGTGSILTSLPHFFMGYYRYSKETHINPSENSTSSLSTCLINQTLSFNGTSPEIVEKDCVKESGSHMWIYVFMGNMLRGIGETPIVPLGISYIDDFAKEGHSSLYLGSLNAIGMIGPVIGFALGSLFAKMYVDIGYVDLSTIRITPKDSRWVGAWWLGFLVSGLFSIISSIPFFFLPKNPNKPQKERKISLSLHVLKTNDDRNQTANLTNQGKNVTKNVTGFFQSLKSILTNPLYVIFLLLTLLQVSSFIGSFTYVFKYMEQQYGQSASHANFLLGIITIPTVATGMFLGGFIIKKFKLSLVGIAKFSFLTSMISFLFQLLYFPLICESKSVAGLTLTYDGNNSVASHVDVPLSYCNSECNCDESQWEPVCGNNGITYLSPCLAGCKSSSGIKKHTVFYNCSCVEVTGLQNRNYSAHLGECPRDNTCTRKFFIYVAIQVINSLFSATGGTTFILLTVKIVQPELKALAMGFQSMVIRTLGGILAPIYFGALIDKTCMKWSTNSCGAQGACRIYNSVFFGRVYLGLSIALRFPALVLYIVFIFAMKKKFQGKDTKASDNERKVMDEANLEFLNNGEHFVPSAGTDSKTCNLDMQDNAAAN

[2] = biological target: T2, rOATP1B2 (Rattus norvegicus, UniProt Q9QZX8); assay: cell-based
T2 construct: gene Slco1b2
T2 sequence (Q9QZX8 1-687): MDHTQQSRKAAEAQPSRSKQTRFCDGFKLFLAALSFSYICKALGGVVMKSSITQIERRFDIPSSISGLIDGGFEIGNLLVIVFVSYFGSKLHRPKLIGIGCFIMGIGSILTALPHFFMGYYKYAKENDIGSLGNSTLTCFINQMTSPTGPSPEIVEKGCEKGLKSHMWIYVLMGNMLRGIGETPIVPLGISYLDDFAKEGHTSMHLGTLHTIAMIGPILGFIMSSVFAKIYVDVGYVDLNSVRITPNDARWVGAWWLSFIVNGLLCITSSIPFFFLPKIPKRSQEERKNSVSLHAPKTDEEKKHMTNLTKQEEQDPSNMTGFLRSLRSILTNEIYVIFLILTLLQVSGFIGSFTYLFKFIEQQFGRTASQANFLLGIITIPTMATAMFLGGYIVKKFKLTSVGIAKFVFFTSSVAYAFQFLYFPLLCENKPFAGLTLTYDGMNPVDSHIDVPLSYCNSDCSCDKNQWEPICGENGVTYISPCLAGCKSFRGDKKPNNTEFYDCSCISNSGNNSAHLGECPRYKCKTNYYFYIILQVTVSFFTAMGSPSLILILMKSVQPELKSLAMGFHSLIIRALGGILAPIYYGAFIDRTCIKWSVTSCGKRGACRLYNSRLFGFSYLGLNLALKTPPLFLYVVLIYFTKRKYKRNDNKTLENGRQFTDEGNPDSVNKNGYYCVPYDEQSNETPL

Question: How did the IC50 [1] turn out when `O=C(O)[C@H]1O[C@@H](Oc2cc3oc(-c4ccc(O)cc4)cc(=O)c3c(O)c2O)[C@H](O)[C@@H](O)[C@@H]1O` [Scutellarin] was run?
Answer: 45.5 ± 6.67 µM

Question: And the IC50 [2]?
Answer: 27.6 ± 3.97 µM

Source: publication PMC7595966, “Scutellarin is Highly Likely to be Responsible for Drug-Drug Interactions Mediated by Hepatic Organic Anion-Transporting Polypeptide1B3” (Pharmaceutical Research, 2020)
